We go through 17 molecules from ChEMBL document CHEMBL3425494, “Design, synthesis, and antitumor evaluation of novel histone deacetylase inhibitors equipped with a phenylsulfonylfuroxan module as a nitric oxide donor” (J Med Chem, 2015).

The structures appear in SMILES notation.

Experiment [1] can be described thus: Cytotoxicity against human ES2 cells assessed as growth inhibition after 48 hrs by MTT assay. It is filed as functional, cell-based. As to conditions: ES-2, 48 h. In general terms: Tetrazolium assays rely on reduction of a dye to a coloured formazan, in cell work by metabolically active cells.
The nature of experiment [2]: Cytotoxicity against human 3AO cells assessed as growth inhibition after 48 hrs by MTT assay. It is filed as functional, cell-based.
A further experiment concerns HeLa. Put plainly: Cytotoxicity against human HeLa cells assessed as growth inhibition after 48 hrs by MTT assay. It is filed as functional, cell-based.
The nature of experiment [3]: Cytotoxicity against human U937 cells assessed as growth inhibition after 48 hrs by MTT assay. It is filed as functional, cell-based. As to conditions: U-937, 48 h.
A short description of experiment [4]: Cytotoxicity against human MDA cells assessed as growth inhibition after 48 hrs by MTT assay. It is filed as functional, cell-based.
A short description of experiment [5]: Cytotoxicity against human KG1 cells assessed as growth inhibition after 48 hrs by MTT assay. It is filed as functional, cell-based. Particulars: KG-1, 48 h.
A short description of experiment [6]: Cytotoxicity against human HCT116 cells assessed as growth inhibition after 48 hrs by MTT assay. Particulars: HCT-116, 48 h. It is filed as functional, cell-based.
For experiment [7], the target named is Histone deacetylase (HDAC1 and HDAC2) (Homo sapiens, UniProt Q13547+Q92769). Put plainly: Inhibition of HDAC1/HDAC2 in human HeLa cells using Boc-Lys(acetyl)-AMC as substrate after 30 mins by fluorescence assay. It is filed as cell-based.
Experiment [8] relates to HEL. Put plainly: Cytotoxicity against human HEL cells assessed as growth inhibition after 48 hrs by MTT assay. It is filed as functional, cell-based.
Experiment [9] has as its system HEL. In words: Cell cycle arrest in human HEL cells assessed as accumulation at G1 phase at 0.5 uM after 48 hrs by propidium iodide staining-based flow cytometric analysis (reference value: 47.87%). It is filed as functional. In general terms: Flow cytometry measures light scatter and fluorescence of single cells or particles in a stream.
Experiment [10] deals with HEL. Put plainly: Cell cycle arrest in human HEL cells assessed as accumulation at S phase at 0.5 uM after 48 hrs by propidium iodide staining-based flow cytometric analysis (reference value: 46.88%). It is filed as functional.
Experiment [11] relates to HEL. Put plainly: Cell cycle arrest in human HEL cells assessed as accumulation at G2 phase at 0.5 uM after 48 hrs by propidium iodide staining-based flow cytometric analysis (reference value: 5.28%). It is filed as functional.
In experiment [12] the test system is HEL. Put plainly: Cytotoxicity against human HEL cells assessed as growth inhibition after 48 hrs by MTT assay in presence of SAHA. It is filed as functional, cell-based.

Regarding `O=C(/C=C/c1ccc(Oc2no[n+]([O-])c2S(=O)(=O)c2ccccc2)cc1)NO`, the half-maximal inhibitory concentration (IC50) (as a rule, the concentration needed to halve the response being measured) was determined as 24.1 µM in [1]; 38.1 µM in experiment [2]; 10.4 µM with HeLa; 16.1 µM in [3]; 25.6 µM in [4]; 2.75 µM in [5]. For the same molecule, the IC50 was 8.09 µM in [6], 0.15 µM in experiment [7] and 2.41 µM in the experiment with HEL [8].

In the case of `O=C(CCCCCCCOc1no[n+]([O-])c1S(=O)(=O)c1ccccc1)NO`, the 50% inhibitory concentration (IC50) worked out at 1.32 µM in [1]; 5.03 µM with HeLa; 9.3 µM in experiment [3]; 2.7 µM in experiment [4]; 0.63 µM in experiment [5]; 0.063 µM in experiment [7]. The IC50 in the experiment with HEL [8] was found to be 10.8 µM.

In the case of `O=C(CCCCCCOc1no[n+]([O-])c1S(=O)(=O)c1ccccc1)NO`, the IC50 turned out to be 7.73 µM in experiment [1]; 9.93 µM in experiment [3]; 1.21 µM in experiment [4]; 4.27 µM in experiment [5]; 4.69 µM in experiment [6]; 0.054 µM in experiment [7]. For the same molecule, in the experiment on HEL [8], the IC50 was 9.33 µM.

On to `O=C(NO)c1cccc(Oc2no[n+]([O-])c2S(=O)(=O)c2ccccc2)c1`, for which the IC50 in [1] was 4.19 µM; in experiment [2], 9.94 µM; with HeLa, 4.67 µM; in [3], 6.49 µM; in experiment [4], 13.9 µM; in experiment [5] it was 1.86 µM. Besides, the IC50 in experiment [6] turned out to be 4.57 µM; in [7], 1.6 µM; in the experiment on HEL [8], 2.6 µM.

Turning to `O=S(=O)(c1ccccc1)c1no[n+]([O-])c1S(=O)(=O)c1ccccc1`, the values for the Activity in the experiment with HEL [9], in the experiment with HEL [10] and in the experiment on HEL [11] were 53.4%, 43.29% and 3.3%, respectively. Also, the IC50 with HEL [12] is 0.53 µM; in experiment [7], above 1000 µM; in the experiment with HEL [8], 0.69 µM.

`CCCC(C)(COc1no[n+]([O-])c1S(=O)(=O)c1ccccc1)C(=O)NO` (stereo not drawn): the IC50 in experiment [1] is 93.3 µM; in [2] it was 88.7 µM; in experiment [3], 25.4 µM; in [4] it was 60.5 µM; in [5], 4.06 µM; in experiment [6], 66.1 µM. In addition, the results for the IC50 (in [7]; in the experiment on HEL [8]) were above 1000 µM and 71.5 µM, respectively.

On to `O=C(CCCCOc1no[n+]([O-])c1S(=O)(=O)c1ccccc1)NO`, for which the IC50 turned out to be 2.53 µM in experiment [1]; 4.3 µM in [2]; 3.65 µM in the experiment with HeLa; 2.91 µM in experiment [3]; 2.53 µM in experiment [4]; 1.91 µM in [5]. Also, the IC50 in experiment [6] was 2.18 µM; in experiment [7], 0.13 µM; in the experiment on HEL [8], 1.03 µM.

As for `O=C(NO)c1ccc(Oc2no[n+]([O-])c2S(=O)(=O)c2ccccc2)cc1`, the IC50 in experiment [1] was found to be 2.19 µM; in experiment [2], 4.35 µM; with HeLa, 1.73 µM; in experiment [3], 4.73 µM; in experiment [4], 6.66 µM; in experiment [5] it was 1.24 µM. In addition, the results for the concentration for half-maximal inhibition (IC50) (in [6]; in experiment [7]; in the experiment on HEL [8]) were 2.7 µM, 0.047 µM and 0.92 µM, respectively.

As to `O=C(COCCOCCOc1no[n+]([O-])c1S(=O)(=O)c1ccccc1)NO`, the IC50 in experiment [1] stood at 18.1 µM; in [2], 19.4 µM; in the experiment with HeLa, 5.14 µM; in experiment [3], 12.1 µM; in experiment [4], 15.8 µM; in [5], 5.38 µM. For the same molecule, the values for the half-inhibitory concentration (IC50) (in experiment [6]; in experiment [7]; in the experiment with HEL [8]) were 11.7 µM, 4.3 µM and 3.73 µM, respectively.

Turning to `COc1cc(C(=O)NO)ccc1Oc1no[n+]([O-])c1S(=O)(=O)c1ccccc1`, the IC50 in [1] amounted to 3.55 µM; in [2], 1.24 µM; with HeLa, 2.26 µM; in [3] it was 3.64 µM; in [4] it was 8.02 µM; in [5], 1.65 µM. Besides, the half-maximal inhibitory concentration (IC50) amounted to 5.03 µM in experiment [6], 7.3 µM in experiment [7] and 5.55 µM in the experiment with HEL [8].

As to `O=S(=O)(c1ccccc1)c1c(OCCCCCCO)no[n+]1[O-]`, the half-inhibitory concentration (IC50) was above 1000 µM in experiment [7] and 2.16 µM with HEL [8].

On to `O=C(Cc1ccc(Oc2no[n+]([O-])c2S(=O)(=O)c2ccccc2)cc1)NO`, for which the IC50 in [1] worked out at 4.13 µM; in experiment [2] it was 22.2 µM; in the experiment with HeLa, 10.4 µM; in experiment [3] it was 5.01 µM; in experiment [4], 15 µM; in experiment [5] it was 1.8 µM. The figures for the 50% inhibitory concentration (IC50) (in [6]; in experiment [7]; in the experiment on HEL [8]) were 14.2 µM, 0.14 µM and 13 µM, respectively.

Take `O=C(COCCOc1no[n+]([O-])c1S(=O)(=O)c1ccccc1)NO`: the IC50 in experiment [1] was found to be 8.69 µM; in [2] it was 19.8 µM; in experiment [3] it was 8.15 µM; in experiment [4] it was 15.1 µM; in experiment [5] it was 7.4 µM; in [6], 13.4 µM. Also, the IC50 worked out at 1.5 µM in experiment [7] and 6.79 µM in the experiment on HEL [8].

Turning to `O=C(CCCOc1no[n+]([O-])c1S(=O)(=O)c1ccccc1)NO`, the IC50 was found to be 3.78 µM in [1]; 22 µM in experiment [2]; 4.79 µM in the experiment on HeLa; 3.3 µM in experiment [3]; 6.2 µM in experiment [4]; 1.48 µM in experiment [5]. Besides, the results for the IC50 (in experiment [7]; in the experiment with HEL [8]) were 0.047 µM and 0.67 µM, respectively.

Consider `O=C(/C=C/COc1no[n+]([O-])c1S(=O)(=O)c1ccccc1)NO`, for which the IC50 turned out to be 19.1 µM in experiment [1]; 57.7 µM in experiment [2]; 8.74 µM in the experiment with HeLa; 47.7 µM in experiment [4]; 3.7 µM in experiment [7].

Regarding `CC(C)(COc1no[n+]([O-])c1S(=O)(=O)c1ccccc1)C(=O)NO`, the concentration for half-maximal inhibition (IC50) in [1] was 6.88 µM; in experiment [2] it was 18.3 µM; in experiment [3], 12.5 µM; in [4] it was 9.55 µM; in experiment [5], 6.08 µM; in experiment [7], above 1000 µM. Also, the half-maximal inhibitory concentration (IC50) in the experiment on HEL [8] was found to be 5.01 µM.

Consider `O=C(CCCCCCC(=O)Nc1ccccc1)NO` [VORINOSTAT], for which the Activity in the experiment on HEL [10] is listed as 20.02%; in the experiment with HEL [11] it was 0%.
